# Data as given in patent US11753407B2, “Compounds for treating spinal muscular atrophy” (PTC Therapeutics, Inc., priority 2012, dated 2023).
# What was measured:
# [1] = test system: SMN2 minigene mRNA (SMN2-A minigene) in HEK293H cells; test: SMN2 minigene mRNA splicing RT-qPCR assay in cultured cells; format: cell-based, human; conditions: Homo sapiens, HEK293-H; concentration increasing full length SMN2 mRNA 1.5-fold relative to vehicle-treated cells; HEK293H cells with SMN2-A minigene, 24 hours, 7-point concentration data; read-out: EC1.5x for production of full length SMN2 mRNA
# How it was run: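 Read-out: minigene-specific full-length (exon 7-included) SMN2 mRNA by one-step multiplex RT-qPCR, normalized to GAPDH and divided by vehicle-treated level. Stable SMN2-A minigene HEK293H cells, 24 h compound exposure, 7 concentrations in duplicate. EC1.5× = concentration raising FL mRNA 1.5-fold.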
# [2] = test system: Smn protein in SMA patient fibroblast cells (GM03813); test: Smn protein assay in cultured cells (SMN HTRF); format: cell-based, human; conditions: SMA patient fibroblast cells, 48 hours; for maximum fold (Fold) increase of Smn protein: 7-point concentration data, fold relative to vehicle control; for EC1.5x for Smn protein expression: 7-point concentration curve, SMN HTRF, concentration producing 1.5 times Smn protein vs DMSO vehicle control
# How it was run: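 Read-out: HTRF 665/620 nm ratio, blank-subtracted as ΔF, then expressed as fold over DMSO vehicle. Fibroblasts from SMA patients were exposed to compounds for 48 h (7 points, 3.16-fold steps, triplicates). Values are EC1.5× and maximum fold Smn increase.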
melting point,SMILES,EC (1.5-fold increase) [1],maximum fold (Fold) increase of Smn protein [2],EC1.5x for Smn protein expression [2]
223 to 228 °C,"COc1ccc(-c2cc(=O)n3cc(N4C[C@@H](O)[C@H](N(C)C)C4)ccc3n2)cc1F [Compound 206, 7-[(3R,4R)-3-(dimethylamino)-4-hydroxypyrrolidin-1-yl]-2-(3-fluoro-4-methoxyphenyl)-4H-pyrido[1,2-a]pyrimidin-4-one]",1 to 3 µM,** (a fold increase between >1.2 and ≤1.35 is indicated by two stars (**)),–
173 to 179 °C,"COc1ccc(-c2cc(=O)n3cc(N4CCC(N)CC4)ccc3n2)cc1F [Compound 207, 7-(4-aminopiperidin-1-yl)-2-(3-fluoro-4-methoxyphenyl)-4H-pyrido[1,2-a]pyrimidin-4-one]",< 0.1 µM,*** (a fold increase between >1.35 and ≤1.5 is indicated by three stars (***)),–
167 to 171 °C,"CNC1CCN(c2ccc3nc(-c4ccc(OC)c(F)c4)cc(=O)n3c2)CC1 [Compound 208, 2-(3-fluoro-4-methoxyphenyl)-7-[4-(methylamino)piperidin-1-yl]-4H-pyrido[1,2-a]pyrimidin-4-one]",< 0.1 µM,*** (a fold increase between >1.35 and ≤1.5 is indicated by three stars (***)),*** (an EC1.5× between >0.3 μM and ≤1 μM is indicated by three stars (***))
255 to 259 °C,"Cc1cn2cc(-c3cc(=O)n4cc(N5C[C@@H](C)N[C@@H](C)C5)ccc4n3)cc(F)c2n1 [Compound 210, 7-[(3R,5S)-3,5-dimethylpiperazin-1-yl]-2-(8-fluoro-2-methylimidazo[1,2-a]pyridin-6-yl)-4H-pyrido[1,2-a]pyrimidin-4-one]",< 0.1 µM,**** (a fold increase between >1.5 and ≤1.65 is indicated by four stars (****)),**** (an EC1.5x≤0.3 μM is indicated by four stars (****))
262 to 266 °C,"Cc1cn2cc(-c3cc(=O)n4cc(N5CCCN(C)CC5)ccc4n3)cc(F)c2n1 [Compound 211, 2-(8-fluoro-2-methylimidazo[1,2-a]pyridin-6-yl)-7-(4-methyl-1,4-diazepan-1-yl)-4H-pyrido[1,2-a]pyrimidin-4-one]",< 0.1 µM,**** (a fold increase between >1.5 and ≤1.65 is indicated by four stars (****)),**** (an EC1.5x≤0.3 μM is indicated by four stars (****))
195 to 200 °C,"COc1ccc(-c2cc(=O)n3cc(N4C[C@H]5CNC[C@H]5C4)ccc3n2)cc1F [Compound 212, 2-(3-fluoro-4-methoxyphenyl)-7-[(3aR,6aS)-hexahydropyrrolo[3,4-c]pyrrol-2(1H)-yl]-4H-pyrido[1,2-a]pyrimidin-4-one]",0.1 to 0.3 µM,**** (a fold increase between >1.5 and ≤1.65 is indicated by four stars (****)),**** (an EC1.5x≤0.3 μM is indicated by four stars (****))
204 to 210 °C,"COc1ccc(-c2cc(=O)n3cc(N4C[C@H]5CN(C)C[C@H]5C4)ccc3n2)cc1F [Compound 213, 2-(3-fluoro-4-methoxyphenyl)-7-[(3aR,6aS)-5-methylhexahydropyrrolo[3,4-c]pyrrol-2(1H)-yl]-4H-pyrido[1,2-a]pyrimidin-4-one]",0.1 to 0.3 µM,*** (a fold increase between >1.35 and ≤1.5 is indicated by three stars (***)),**** (an EC1.5x≤0.3 μM is indicated by four stars (****))
145 to 148 °C,"COc1ccc(-c2cc(=O)n3cc(C4CCN(CCO)CC4)ccc3n2)cc1OC [Compound 214, 2-(3,4-dimethoxyphenyl)-7-[1-(2-hydroxyethyl)piperidin-4-yl]-4H-pyrido[1,2-a]pyrimidin-4-one]",0.3 to 1 µM,**** (a fold increase between >1.5 and ≤1.65 is indicated by four stars (****)),** (an EC1.5× between >1 μM and ≤3 μM is indicated by two stars (**))
130 to 135 °C,"COc1cc(-c2cc(=O)n3cc(N4CCN[C@@H](C)C4)ccc3n2)ccc1F [Compound 215, 2-(4-fluoro-3-methoxyphenyl)-7-[(3S)-3-methylpiperazin-1-yl]-4H-pyrido[1,2-a]pyrimidin-4-one]",0.3 to 1 µM,*** (a fold increase between >1.35 and ≤1.5 is indicated by three stars (***)),–
170 to 172 °C,"COc1cc(-c2cc(=O)n3cc(N4CCNCC4)ccc3n2)ccc1F [Compound 216, 2-(4-fluoro-3-methoxyphenyl)-7-(piperazin-1-yl)-4H-pyrido[1,2-a]pyrimidin-4-one]",0.3 to 1 µM,*** (a fold increase between >1.35 and ≤1.5 is indicated by three stars (***)),–
160 to 164 °C,"COc1cc(-c2cc(=O)n3cc(N4CCN[C@@H](C)C4)ccc3n2)cc(F)c1F [Compound 217, 2-(3,4-difluoro-5-methoxyphenyl)-7-[(3S)-3-methylpiperazin-1-yl]-4H-pyrido[1,2-a]pyrimidin-4-one]",0.3 to 1 µM,*** (a fold increase between >1.35 and ≤1.5 is indicated by three stars (***)),–
155 to 160 °C,"COc1cc(-c2cc(=O)n3cc(N4CCNCC4)ccc3n2)cc(F)c1F [Compound 218, 2-(3,4-difluoro-5-methoxyphenyl)-7-(piperazin-1-yl)-4H-pyrido[1,2-a]pyrimidin-4-one]",0.1 to 0.3 µM,*** (a fold increase between >1.35 and ≤1.5 is indicated by three stars (***)),** (an EC1.5× between >1 μM and ≤3 μM is indicated by two stars (**))
218 to 220 °C,"Cc1nc2ccc(-c3cc(=O)n4cc(N5CCNCC5)ccc4n3)cc2s1 [Compound 219, 2-(2-methyl-1,3-benzothiazol-6-yl)-7-(piperazin-1-yl)-4H-pyrido[1,2-a]pyrimidin-4-one]",< 0.1 µM,**** (a fold increase between >1.5 and ≤1.65 is indicated by four stars (****)),**** (an EC1.5x≤0.3 μM is indicated by four stars (****))
214 to 216 °C,"Cc1nc2ccc(-c3cc(=O)n4cc(N5CCN[C@@H](C)C5)ccc4n3)cc2s1 [Compound 221, 2-(2-methyl-1,3-benzothiazol-6-yl)-7-[(3S)-3-methylpiperazin-1-yl]-4H-pyrido[1,2-a]pyrimidin-4-one]",< 0.1 µM,***** (a fold increase >1.65 is indicated by five stars (*****)),**** (an EC1.5x≤0.3 μM is indicated by four stars (****))
208 to 216 °C,"CN[C@H]1CCN(c2ccc3nc(-c4ccc(OC)c(F)c4)cc(=O)n3c2)C1 [Compound 222, 2-(3-fluoro-4-methoxyphenyl)-7-[(3S)-3-(methylamino)pyrrolidin-1-yl]-4H-pyrido[1,2-a]pyrimidin-4-one]",0.3 to 1 µM,*** (a fold increase between >1.35 and ≤1.5 is indicated by three stars (***)),–
